pEC50: −log10 of the molar value. Read-outs that look alike come from different tables or passages of the source.
Experiments:
[1] = target: T1, ligand-binding domain of human type PPARα (Homo sapiens, UniProt Q07869); test: Test of transactivation on peroxisome proliferator-activated receptor (CHO cells, reporter plasmid), PPARα
T1 sequence (Q07869 239-466 limits assumed): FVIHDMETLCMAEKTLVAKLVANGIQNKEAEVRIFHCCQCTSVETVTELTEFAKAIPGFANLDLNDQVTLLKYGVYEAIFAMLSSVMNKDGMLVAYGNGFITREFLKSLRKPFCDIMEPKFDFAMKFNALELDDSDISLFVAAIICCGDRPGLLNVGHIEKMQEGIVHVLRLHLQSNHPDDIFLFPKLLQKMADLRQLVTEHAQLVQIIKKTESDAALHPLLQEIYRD
Protocol: (§1) After 24 hours, CAT activity and β-galactosidase activity were measured.

[2] = target: T2, ligand-binding domain of human type PPARγ (Homo sapiens, UniProt P37231); test: Test of transactivation on peroxisome proliferator-activated receptor (CHO cells, reporter plasmid), PPARγ
T2 sequence (P37231 238-503 limits assumed): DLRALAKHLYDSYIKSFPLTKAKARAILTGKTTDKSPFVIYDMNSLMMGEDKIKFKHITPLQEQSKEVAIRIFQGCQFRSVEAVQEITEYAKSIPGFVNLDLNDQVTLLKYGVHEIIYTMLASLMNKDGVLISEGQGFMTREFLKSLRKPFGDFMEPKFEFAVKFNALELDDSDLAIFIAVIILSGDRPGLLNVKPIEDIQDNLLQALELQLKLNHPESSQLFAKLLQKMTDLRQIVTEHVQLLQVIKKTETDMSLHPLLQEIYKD
Protocol: as §1

[3] = read-out: Transactivation action PPARα EC50, CHO cells cotransfected with receptor and reporter plasmids, 24 hours, CAT activity, β-galactosidase internal standard

pEC50 [2]	pEC50 [1]	melting point	SMILES	pEC50 [1, 3]	pEC50 ([2]; read-out: Transactivation action PPARγ EC50, CHO cells cotransfected with receptor and reporter plasmids, 24 hours, CAT activity, β-galactosidase internal standard)
6.37	6.26	202 to 204 °C	COc1ccc(CC2SC(=O)NC2=O)cc1NC(=O)Nc1ccc(C(F)(F)F)cc1 (stereo not shown) [Example 11, 5-[[4-Methoxy-3-[3-[4-(trifluoromethyl)phenyl]ureido]phenyl]methyl]thiazolidinex-2,4-dione]		
5.96	6.07	147 to 149 °C	COc1ccc(CC2SC(=O)NC2=O)cc1NC(=O)Cc1ccc(C(F)(F)F)cc1 (stereo not shown) [Example 15, N-[2-Methoxy-5-[(2,4-dioxothiazolidin-5-yl)methyl]phenyl]-2-[4-(trifluoromethyl)phenyl]acetamide]		
6.40	6.10	103 to 104.5 °C	COc1ccc(CC2SC(=O)NC2=O)cc1C(=O)CCc1ccc(C(F)(F)F)cc1 (stereo not shown) [Example 22, 5-[[3-[3-[4-(Trifluoromethyl)phenyl]propanoyl]-4-methoxynhenyl]methyl]thiazolidine-2,4-dione]		

The next lines start with the molecule.

SMILES	pEC50 [2]	pEC50 [1]	melting point	pEC50 [1, 3]	pEC50 ([2]; read-out: Transactivation action PPARγ EC50, CHO cells cotransfected with receptor and reporter plasmids, 24 hours, CAT activity, β-galactosidase internal standard)
CCCCC/C=C\C/C=C\C=C\[C@@H](O)C/C=C\CCCC(=O)O [(8S)-HETE, reference compound]				5.89	
COc1ccc(CC2SC(=O)NC2=O)cc1CC(=O)Nc1ccc(C(F)(F)F)cc1 (stereo not shown) [Example 6, N-[4-(Trifloromethyl)phenyl]-2-[5-[(2,4-dioxothiazolidin-5-yl)methyl]2-methoxyphenyl]acetamide]				6.22	5.48
COc1ccc(CC2SC(=O)NC2=O)cc1CC(=O)Nc1ccc(Oc2ccccc2)cc1 (stereo not shown) [Example 23, N-[4-(Phenoxy)phenyl]-2-[5-[(2,4-dioxothiazolidin-5-yl)methyl]-2-methoxyphenyl]acetamide]			82 to 84 °C		

— patent publication US6730687B1, “Substituted benzylthiazolidine-2, 4-dione derivatives” (Kyorin Pharmaceutical Co., Ltd., priority 1999, dated 2004)
